Measurements as given in patent US5646136A, “Methods of inhibiting angiogenesis and tumor growth, and treating ophthalmologic conditions with angiostatic and therapeutic steroids” (Duke University, priority 1994, dated 1997).

Legend:
human pancreatic cancers = assay: Inhibition of human pancreatic cancers; conditions: in particular cancers rich in glucocorticoid receptors
glucocorticoid activity = assay: Glucocorticoid activity (general statements)
[1] = system: corneal neovascularization; assay: Inhibition of corneal neovascularization in cauterized rat corneas, topical application four times per day for four days; format: in vivo; conditions: for Neovascularization (percent of the corneal area occupied by blood vessels): mean ± S.D.; for Percent Inhibition of neovascularization: versus vehicle
Experimental: (§1) The ability of etianic acids to inhibit angiogenesis was evaluated in vivo in rats. Each animal had its corneas cauterized with silver nitrate/potassium nitrate. The cauterization causes the normally avascular cornea to undergo neovascularization (anglogenesis). This animal model, refined by Proia et al., Lab. Invest. 58: 473-479 (1988) and now a well-established assay, quantifies corneal neovascularization by computerized image analysis. […] Ophthalmol. Vis. Science 30: 1588-1593 (1989), and can provide a more definitive evaluation of angiostatic activity than models using the chorioallantoic membrane in the chick egg or the rabbit eye model. See Proia et al., Exp. Eye Res. (in press--to be published in Vol. 57 in 1993).
(§2) Female rats were obtained from Zivic-Miller Laboratories, Zelienople, Pa. There were 6-8 rats included in each treatment group. Neovascularization was induced by cauterizing both corneas of each anesthetized rat; this was performed by applying the tip of a silver nitrate/potassium nitrate to the cornea for 5-7.5 seconds.
The corneal tissues were treated with steroid formulations.
Steroids were formulated in vehicle containing 10 percent Tween 20 (polyoxyethylene sorbitan monolaurate) dissolved in 0.9 percent saline with percent (by volume) 0.2M tris (hydroxymethyl)aminomethane, pH 7.4. […] All steroids were tested at a concentration of 1 percent; additionally, some formulations were also tested at 0.01 percent, 0.1 percent, and 2.5 percent. Three 10 μl drops of each concentration of steroid were applied topically to each cauterized cornea four times per day (8:00 a.m., noon, 4:00 p.m., and 8:00 p.m.).
(§3) After four days of treatment, the animals were euthanized by rapid asphyxiation in a carbon dioxide chamber. The vasculature was perfused with a mixture of 10 percent india ink/11 percent gelatin/lactated Ringer's solution. Corneal tissue was dissected and prepared as flat mounts. During dissection, the corneas were examined with a dissecting microscope, and the degree of neovascularization was graded numerically from 1+ to 4+. After dehydration with alcohols, cleaning with xylene, mounting, and drying, the area of each cornea and the length of blood vessels were determined by computerized image analysis.
Statistical evaluation of inhibition of corneal neovascularization by each concentration of drug was evaluated using Mann Whitney U Tests (one-tailed; P<0.05=significant difference). […] In all cases, however, image analysis was used to quantitatively confirm visual observations.

thymus = assay: Thymus weight of rats treated topically in the corneal angiogenesis study; format: in vivo, rat
Experimental: as §1, §2
(§4) Steroids were formulated in vehicle containing 10 percent Tween 20 (polyoxyethylene sorbitan monolaurate) dissolved in 0.9 percent saline with percent (by volume) 0.2M tris (hydroxymethyl)aminomethane, pH 7.4. The steroids dissolved readily when the pH was adjusted to 7.0-8.0 with NaOH or KOH. All steroids were tested at a concentration of 1 percent; additionally, some formulations were also tested at 0.01 percent, 0.1 percent, and 2.5 percent. Three 10 μl drops of each concentration of steroid were applied topically to each cauterized cornea four times per day (8:00 a.m., noon, 4:00 p.m., and 8:00 p.m.).
as §3

[2] = Body weight of rats treated topically in the corneal angiogenesis study; format: in vivo, rat; conditions: topical, all concentrations
Experimental: as §1, §2, §4
After four days of treatment, the animals were euthanized by rapid asphyxiation in a carbon dioxide chamber. The vasculature was perfused with a mixture of 10 percent india ink/11 percent gelatin/lactated Ringer's solution. […] After dehydration with alcohols, cleaning with xylene, mounting, and drying, the area of each cornea and the length of blood vessels were determined by computerized image analysis.

[3] = system: corneal neovascularization; assay: Corneal angiogenesis inhibition, subcutaneous injection once/day; format: in vivo, rat
Experimental: as §1, §2, §3
The ability of compounds 2013, 518, and 513 to inhibit corneal angiogenesis when injected subcutaneously once/day to was assessed on rats prepared as described in Example 8. Dexamethasone was used as a positive control.

rat corneas = assay: Histological study of steroid-treated cauterized corneal tissue; format: in vivo; conditions: 1 percent topical QID
Experimental: A histological study was performed in which either vehicle or 1 percent compound 2013 (17β-carboxylic acid derivative of prednisolone) was applied topically (QID) to rat corneas cauterized as described in Example 23. Five rats were included in each experimental group. The rats were killed either one or four days after treatment.
Histological sections were prepared through the cautery site.

[4] = system: Dunning R3327 (PAP) prostatic adenocarcinoma; conditions: in vitro; cited from earlier work
[5] = system: Kirsten murine sarcoma virus transformed human skin fibroblasts; conditions: cited from earlier work
MCF-7 breast cancer = conditions: in vitro; cited from earlier work

For `C[C@]12C=C(C(=O)O)C(=O)C=C1CC[C@@H]1[C@@H]2[C@@H](O)C[C@@]2(C)[C@H]1CC[C@]2(C)O` [2-carboxyl-11β,17β-dihydroxy-17α-methyl-1,4-androstadien-3-one], the “Inhibition of human pancreatic cancers (in words)” value (human pancreatic cancers) was “inhibits certain human pancreatic cancers, and in particular inhibits those cancers rich in glucocorticoid receptors” and the “Glucocorticoid activity (in words)” value (glucocorticoid activity) was “anti-glucocorticoid”.

With `C[C@]12C=CC(=O)C=C1CC[C@@H]1[C@@H]2[C@@H](O)C[C@@]2(C)[C@H]1CC[C@]2(O)C(=O)O` [Compound 2013, 17β-carboxyl-11β,17α-dihydroxy-3-oxo-1,4-androstadiene] the “Neovascularization (percent of the corneal area occupied by blood vessels)” value ([1]; Experiment A, topical 0.01%) was 26.2 ± 6.3%, the “Percent Inhibition of neovascularization” value ([1]; Experiment A, topical 0.01%) was “+21%” and the “Neovascularization (percent of the corneal area occupied by blood vessels)” value ([1]; Experiment A, topical 0.1%) was 13.9 ± 7.3%. For the same compound, the “Percent Inhibition of neovascularization” value ([1]; Experiment A, topical 0.1%) was 36%, the “Neovascularization (percent of the corneal area occupied by blood vessels)” value ([1]; Experiment A, topical 1.0%) was 9.8 ± 2.0% and the “Percent Inhibition of neovascularization” value ([1]; Experiment A, topical 1.0%) was 55%. For the same compound, the “Neovascularization (percent of the corneal area occupied by blood vessels)” value ([1]; Experiment B, topical 0.01%) was 18.3 ± 4.0%, the “Percent Inhibition of neovascularization” value ([1]; Experiment B, topical 0.01%) was 22% and the “Neovascularization (percent of the corneal area occupied by blood vessels)” value ([1]; Experiment B, topical 0.1%) was 14.6 ± 6.8%. The “Percent Inhibition of neovascularization” value ([1]; Experiment B, topical 0.1%) was 38%, the “Neovascularization (percent of the corneal area occupied by blood vessels)” value ([1]; Experiment B, topical 1.0%) was 16.0 ± 3.6% and the “Percent Inhibition of neovascularization” value ([1]; Experiment B, topical 1.0%) was 32%. For the same compound, the “Inhibition of corneal vascularization (significance, in words)” value ([1]; applied topically) was “did cause significant inhibition of corneal vascularization”, the “Change in thymus weight (in words)” value (thymus; topical 0.1 percent) was “no significant effect on thymus weight” and the “Decrease of thymus weight from control” value (thymus; topical 1 percent) was 27%. For the same compound, the Thymus weight (thymus; topical 1 percent, four days) was 0.207±0.035 gm, the “Effect on body weight (in words)” value [2] was “Body weight was unaffected by treatment with any concentration” and the Neovasc. ([3]; 10 mg/kg/day subcutaneous) was 21.5 ± 6.3%. For the same compound, the Neovasc. ([3]; 25 mg/kg/day subcutaneous) was 17.1 ± 3.0%, the “Degree of leukocytic infiltrate versus vehicle (in words)” value (rat corneas; 24 or 96 hours post-cautery) was “no difference in the degree of leukocytic infiltrate” and the “Corneal reepithelialization and neovascularization (in words)” value (rat corneas; 24 hours after cautery) was “Neither corneal reepithelialization nor neovascularization were observed”. The “Corneal reepithelialization (in words)” value (rat corneas; 96 hours post-cautery) was “all corneas were reepithelialized”, the “Neovascularization (histological)” value (rat corneas; 96 hours post-cautery) was 0.6±0.6 and the “Neovascularization versus vehicle (in words)” value (rat corneas; 96 hours post-cautery) was “marked reduction in neovascularization”. The “Growth inhibition of Dunning R3327 (PAP) (in words)” value [4] was “inhibits growth of the Dunning R3327 (PAP) prostatic adenocarcinoma” and the “Neodifferentiation into adipose cells (in words)” value [5] was “promotes neodifferentiation”.

In the case of `C[C@]12C=CC(=O)C=C1CC[C@@H]1[C@@H]2[C@@H](O)C[C@@]2(C)[C@H]1CC[C@]2(O)C(=O)NCc1ccccc1` [benzylamide derivative, prednienic acid benzylamide], the “Inhibition of MCF-7 breast cancer (in words)” value (MCF-7 breast cancer) is given as “inhibits MCF-7 breast cancer”.
